The results in this text go back to patent US20240383911A1, “AZAINDAZOLE MACROCYCLE COMPOUNDS AND USES THEREOF” (BROADENBIO CO., LTD, priority 2021, published 2024).

For one assay, the target named is HPK1 (Homo sapiens, UniProt Q92918). Nature of the assay: HPK1 kinase activity inhibition test (ADP-Glo, luminescence). Type of assay: biochemical. Particulars: 2 μM ATP, 5 nM HPK1, read-out: IC50, inhibitory effects on HPK1 kinase activity. How it is done: The kinase activity of HPK1 is manifested as activity of autophosphorylation and phosphorylation of downstream substrates. In the process of autophosphorylation, additional substrates are not required, and ATP is consumed to generate ADP. The amount of the product is measured by ADP-Glo reagent and luminescence method to reflect kinase activity.
(§1) Tested compounds: compounds prepared in the Examples of this invention.
Preparation of compound stock solution: dissolve the test compound in 100% DMSO to make a 10 mM stock solution;
Preparation of 4×Kinase Reaction Buffer:
Preparation of 2×HPK1 Kinase Solution:
Preparation of 4×ATP Mixture:
Dilute the stock solution of the test compound by 5 times with 100% DMSO, make a 4-fold equal dilution in a 96-well dilution plate, add 1 μL of the compound to 49 μL of kinase reaction buffer, and shake on a microplate shaker for 20 minutes. Transfer 2 μL of 2×HPK1 kinase solution to 384 reaction plate, add 1 μL of the test compound to the 384 reaction plate (Greiner, Cat #784075), centrifuge for 1 minute (1000 rpm/min), incubate at 25° C. for 10 minutes. Transfer 1 μL of the 4×ATP mixture to a 384 reaction plate, centrifuge for 1 minute (1000 rpm/min), and incubate at 25° C. for 60 minutes. In the reaction system, the final concentration of DMSO is 0.5%. Transfer 4 μL of ADP-Glo to a 384 reaction plate, centrifuge for 1 minute (1000 rpm/min), and incubate at 25° C. for 40 minutes. Transfer 8 μL detection solution to a 384 reaction plate, centrifuge for 1 minute (1000 rpm/min), and incubate at 25° C. for 40 minutes. The […] is read using a Biotek multi-function plate reader, and the IC50 (half inhibitory concentration) of the compound is obtained using a four-coefficient nonlinear fitting formula.

A further assay relates to Human Jurkat-E6-1 cells. Description: Detection of IL-2 production by Jurkat cells using ELISA. The class given is cell-based. Particulars: anti-CD3/anti-CD28 stimulation 24 hours, read-out: Percentage of the amount of IL-2 secreted by compound treated vs DMSO-treated cells; for activity at 3 µM: tested compound 3.0 μM; for activity at 0.33 µM: tested compound 0.33 μM. How it is done: as §1
Human Jurkat-E6-1 cells were incubated with various concentrations of tested compounds for 30 minutes in a humidified incubator at 37° C. and 5% CO2. Cells were transferred to cell culture plates pre-coated with anti-human CD3 antibody, then soluble anti-human CD28 antibody was added, and cells were stimulated for 24 hours at 37° C. and 5% CO2 in a humidified incubator. The cell culture medium was collected after centrifugation, and was then transferred to a 96-well transparent microtiter plate (Thermo) pre-coated with anti-human IL-2 antibody, incubated at room temperature for 2 hours with gently shaking, washed with washing buffer for 4 times, and then followed the ELISA MAX Deluxe Set Human IL-2 (BioLegend) kit procedures, used a microplate reader (Molecular Device, i3X) to read the GD value at 450 nm. The best standard curve was selected by the microplate reader application software, and the corresponding concentration was calculated according to the GD value of the standard. Results are expressed as a percentage (%) of the amount of IL-2 secreted by compound-treated vs DMSO-treated cells.
In general terms: In an ELISA, binding on a coated surface is turned into a signal by an enzyme label.

The structures appear in SMILES notation. A value given as a limit tells only on which side of the number the result lay.

Sequence of HPK1 (Q92918 whole entry): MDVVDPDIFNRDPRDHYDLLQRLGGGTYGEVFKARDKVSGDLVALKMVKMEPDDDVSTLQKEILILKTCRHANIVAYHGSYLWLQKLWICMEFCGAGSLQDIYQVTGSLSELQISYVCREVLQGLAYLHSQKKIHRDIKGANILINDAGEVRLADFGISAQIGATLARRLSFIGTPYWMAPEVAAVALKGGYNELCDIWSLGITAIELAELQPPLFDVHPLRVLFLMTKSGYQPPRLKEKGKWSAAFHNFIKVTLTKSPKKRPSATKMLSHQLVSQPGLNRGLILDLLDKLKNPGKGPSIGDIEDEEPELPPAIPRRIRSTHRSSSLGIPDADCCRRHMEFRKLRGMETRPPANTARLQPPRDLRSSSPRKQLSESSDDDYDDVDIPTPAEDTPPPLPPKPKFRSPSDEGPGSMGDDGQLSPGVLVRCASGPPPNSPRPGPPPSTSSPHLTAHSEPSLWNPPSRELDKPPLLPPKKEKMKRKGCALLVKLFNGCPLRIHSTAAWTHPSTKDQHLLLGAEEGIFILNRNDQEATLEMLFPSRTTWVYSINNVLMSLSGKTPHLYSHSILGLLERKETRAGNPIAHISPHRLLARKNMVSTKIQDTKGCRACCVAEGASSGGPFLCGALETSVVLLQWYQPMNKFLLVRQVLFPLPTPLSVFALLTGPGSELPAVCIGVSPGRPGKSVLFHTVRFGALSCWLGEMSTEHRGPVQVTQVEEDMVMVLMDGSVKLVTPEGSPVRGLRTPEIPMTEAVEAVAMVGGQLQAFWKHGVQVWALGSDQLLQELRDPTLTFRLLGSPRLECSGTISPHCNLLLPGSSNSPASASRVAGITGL

A word on the IC50: it is the concentration at which inhibition is half-maximal. As to `Fc1cccc2c1-c1cc3c(n[nH]c3cn1)-c1cnc(N3CCOCC3)c(c1)OCCCO2` [Compound 4, 16-fluoro-5-(morpholin-4-yl)-7,11-dioxa-4,19,22,23-tetraazapentacyclo[16.5.2.1^2,6.0^12,17.0^21,24]hexacosa-1(23),2(26),3,5,12,14,16,18,20,24-decaene], the half-maximal inhibitory concentration (IC50) on HPK1 lay within 5 to 50 nM. Moreover, the activity at 3 µM in the assay on Human Jurkat-E6-1 cells is 801%.

With `CN1CCN(c2ccc3cc2OCCCCOc2cccc(F)c2-c2cc4c-3n[nH]c4cn2)CC1` [Compound 7, 17-fluoro-5-(4-methylpiperazin-1-yl)-7,12-dioxa-20,23,24-triazapentacyclo[17.5.2.1^2,6.0^13,18.0^22,25]heptacosa-1(24),2(27),3,5,13,15,17,19,21,25-decaene], the 50% inhibitory concentration (IC50) at HPK1 lay in the range of 5 to 50 nM. Moreover, the activity at 3 µM in the assay on Human Jurkat-E6-1 cells turned out to be 404%.

`CN1CCN(c2ccc3cc2OCCCOCc2cccc(F)c2-c2cc4c-3n[nH]c4cn2)CC1(C)C` [Compound 17, 17-fluoro-5-(3,3,4-trimethylpiperazin-1-yl)-7,11-dioxa-20,23,24-triazapentacyclo[17.5.2.1^2,6.0^13,18.0^22,25]heptacosa-1(24),2,4,6(27),13(18),14,16,19,21,25-decaene]: the 50% inhibitory concentration (IC50) on HPK1 was at most 5 nM. Also, the activity at 0.33 µM in the assay with Human Jurkat-E6-1 cells is 439%.

Consider `CN1C2CCC1CN(c1ccc3cc1OCCCOCc1cccc(F)c1-c1cc4c-3n[nH]c4cn1)C2` [Compound 18, 17-fluoro-5-{8-methyl-3,8-diazabicyclo[3.2.1]octan-3-yl}-7,11-dioxa-20,23,24-triazapentacyclo[17.5.2.1^2,6.0^13,18.0^22,25]heptacosa-1(24),2,4,6(27),13(18),14,16,19,21,25-decaene], for which the IC50 at HPK1 is at most 5 nM. For the same molecule, the activity at 0.33 µM in the assay with Human Jurkat-E6-1 cells worked out at 486%.

As to `CN1CCN(c2ccc3cc2OCCCCOCc2cccc(F)c2-c2cc4c-3n[nH]c4cn2)CC1` [Compound 100, 18-fluoro-5-(4-methylpiperazin-1-yl)-7,12-dioxa-21,24,25-triazapentacyclo[18.5.2.1^2,6.0^14,19.0^23,26]octacosa-1(25),2(28),3,5,14(19),15,17,20,22,26-decaene], the IC50 on HPK1 fell in the range of 5 to 50 nM. In the assay with Human Jurkat-E6-1 cells (tested compound 1.0 μM), the activity at 1 µM is 235%.

In the case of `CN1CCN(c2ccc3cc2OCCCCCc2cccc(F)c2-c2cc4c-3n[nH]c4cn2)CC1` [Compound 101, 17-fluoro-5-(4-methylpiperazin-1-yl)-7-oxa-20,23,24-triazapentacyclo[17.5.2.1^2,6.0^13,18.0^22,25]heptacosa-1(24),2(27),3,5,13(18),14,16,19,21,25-decaene], at HPK1, the IC50 is at most 5 nM. In addition, the activity at 0.33 µM in the assay on Human Jurkat-E6-1 cells was found to be 257%.

With `Fc1cccc2c1-c1cc3c(n[nH]c3cn1)-c1ccc(N3CCC(N4CCOCC4)CC3)c(c1)OCCCO2` [Compound 104, 16-fluoro-5-[4-(morpholin-4-yl)piperidin-1-yl]-7,11-dioxa-19,22,23-triazapentacyclo[16.5.2.1^2,6.0^12,17.0^21,24]hexacosa-1(23),2,4,6(26),12(17),13,15,18,20,24-decaene], on HPK1, the IC50 is at most 5 nM. Further, the activity at 0.33 µM with Human Jurkat-E6-1 cells was determined as 273%.

As for `Fc1cccc2c1-c1cc3c(n[nH]c3cn1)-c1ccc(N3CCC(N4CCOCC4)CC3)c(c1)OCCCOC2` [Compound 105, 17-fluoro-5-[4-(morpholin-4-yl)piperidin-1-yl]-7,11-dioxa-20,23,24-triazapentacyclo[17.5.2.1^2,6.0^13,18.0^22,25]heptacosa-1(24),2,4,6(27),13(18),14,16,19,21,25-decaene], the IC50 on HPK1 is at most 5 nM. The activity at 0.33 µM in the assay on Human Jurkat-E6-1 cells was determined as 313%.

For `CN1CCN(c2ccc3cc2OCCCOc2cccc(F)c2-c2cc4c-3n[nH]c4cn2)C[C@@H]1CO` [Compound 130, [(2R)-4-{16-fluoro-7,11-dioxa-19,22,23-triazapentacyclo[16.5.2.1^2,6.0^12,17.0^21,24]hexacosa-1(23),2,4,6(26),12(17),13,15,18,20,24-decaen-5-yl}-1-methylpiperazin-2-yl]methanol], at HPK1, the IC50 was at most 5 nM.

With `CN1CCN(c2ccc3cc2OCCCOc2cccc(F)c2-c2cc4c-3n[nH]c4cn2)C[C@H]1CO` [Compound 131, [(2S)-4-{16-fluoro-7,11-dioxa-19,22,23-triazapentacyclo[16.5.2.1^2,6.0^12,17.0^21,24]hexacosa-1(23),2,4,6(26),12(17),13,15,18,20,24-decaen-5-yl}-1-methylpiperazin-2-yl]methanol], on HPK1, the IC50 is at most 5 nM.

In the case of `O=C1OC[C@H]2CN(c3ccc4cc3OCCCOc3cccc(F)c3-c3cc5c-4n[nH]c5cn3)CCN12` [Compound 134, (8aR)-7-{16-fluoro-7,11-dioxa-19,22,23-triazapentacyclo[16.5.2.1^2,6.0^12,17.0^21,24]hexacosa-1(23),2,4,6(26),12(17),13,15,18,20,24-decaen-5-yl}-hexahydro-1H-[1,3]oxazolo[3,4-a]pyrazin-3-one], on HPK1, the IC50 was at most 5 nM.

With `O=C1OC[C@@H]2CN(c3ccc4cc3OCCCOc3cccc(F)c3-c3cc5c-4n[nH]c5cn3)CCN12` [Compound 135, (8aS)-7-{16-fluoro-7,11-dioxa-19,22,23-triazapentacyclo[16.5.2.1^2,6.0^12,17.0^21,24]hexacosa-1(23),2,4,6(26),12(17),13,15,18,20,24-decaen-5-yl}-hexahydro-1H-[1,3]oxazolo[3,4-a]pyrazin-3-one], at HPK1, the 50% inhibitory concentration (IC50) is at most 5 nM.

For the molecule `CN1C[C@H]2CN(c3ccc4cc3OCCCOc3cccc(F)c3-c3cc5c-4n[nH]c5cn3)CCN2CC1=O` [Compound 137, (9aR)-8-{16-fluoro-7,11-dioxa-19,22,23-triazapentacyclo[16.5.2.1^2,6.0^12,17.0^21,24]hexacosa-1(23),2,4,6(26),12(17),13,15,18,20,24-decaen-5-yl}-2-methyl-octahydro-1H-[1,4]diazino[1,2-a]pyrazin-3-one], on HPK1, the IC50 is at most 5 nM.

For `CN1C[C@@H]2CN(c3ccc4cc3OCCCOc3cccc(F)c3-c3cc5c-4n[nH]c5cn3)CCN2CC1=O` [Compound 138, (9aS)-8-{16-fluoro-7,11-dioxa-19,22,23-triazapentacyclo[16.5.2.1^2,6.0^12,17.0^21,24]hexacosa-1(23),2,4,6(26),12(17),13,15,18,20,24-decaen-5-yl}-2-methyl-octahydro-1H-[1,4]diazino[1,2-a]pyrazin-3-one], the IC50 at HPK1 was at most 5 nM.

As for `CN1C[C@@H]2C[C@H]1CN2c1ccc2cc1OCCCOc1cccc(F)c1-c1cc3c-2n[nH]c3cn1` [Compound 140, 16-fluoro-5-[(1S,4S)-5-methyl-2,5-diazabicyclo[2.2.1]heptan-2-yl]-7,11-dioxa-19,22,23-triazapentacyclo[16.5.2.1^2,6.0^12,17.0^21,24]hexacosa-1(23),2,4,6(26),12(17),13,15,18,20,24-decaene], the IC50 on HPK1 is at most 5 nM.

In the case of `CN1C[C@H]2C[C@@H]1CN2c1ccc2cc1OCCCOc1cccc(F)c1-c1cc3c-2n[nH]c3cn1` [Compound 141, 16-fluoro-5-[(1R,4R)-5-methyl-2,5-diazabicyclo[2.2.1]heptan-2-yl]-7,11-dioxa-19,22,23-triazapentacyclo[16.5.2.1^2,6.0^12,17.0^21,24]hexacosa-1(23),2,4,6(26),12(17),13,15,18,20,24-decaene], the IC50 at HPK1 is at most 5 nM.

For `Fc1cccc2c1-c1cc3c(n[nH]c3cn1)-c1ccc(N3C[C@@H]4C[C@H]3CN4C3COC3)c(c1)OCCCO2` [Compound 142, 16-fluoro-5-[(1S,4S)-5-(oxetan-3-yl)-2,5-diazabicyclo[2.2.1]heptan-2-yl]-7,11-dioxa-19,22,23-triazapentacyclo[16.5.2.1^2,6.0^12,17.0^21,24]hexacosa-1(23),2,4,6(26),12(17),13,15,18,20,24-decaene], on HPK1, the IC50 was 5 to 50 nM.

As to `CN1CCN(c2ccc3cc2OCCCOc2cccc(F)c2-c2cc4c-3n[nH]c4cn2)CC1(C)C` [Compound 143, 16-fluoro-5-(3,3,4-trimethylpiperazin-1-yl)-7,11-dioxa-19,22,23-triazapentacyclo[16.5.2.1^2,6.0^12,17.0^21,24]hexacosa-1(23),2,4,6(26),12(17),13,15,18,20,24-decaene], the IC50 at HPK1 was at most 5 nM.
